In US20160303056A1, “FASTING MIMICKING DIET (FMD) AND GLUCOSE LOWERING DRUGS PROTECT NORMAL CELLS AND GENERATE CANCER SENSITIZING CONDITIONS IN RESPONSE TO STANDARD AND HIGH GLUCOSE CONDITIONS INDUCED BY RAPAMYCIN AND DEXAMETHASONE” (UNIVERSITY OF SOUTHERN CALIFORNIA, priority 2015, published 2016):

Assays:
C57BL/6 mice = conditions: mouse, in vivo
[1] = Circulating glucose levels in mice given rapamycin or dexamethasone, with or without insulin, STS or FMD; type: in vivo, mouse (C57BL/6); conditions: rapamycin or dexamethasone ip daily for 14 days, compared with ad lib (FIG. 1B)
[2] = Blood glucose levels in mice injected ip with metformin; type: in vivo, mouse; conditions: metformin 50 mg/kg ip, saline for control mice (FIG. 1E)

SMILES | sensitization of mice to chemotherapy (mortality) (C57BL/6 mice) | circulating glucose levels [1] | circulating glucose levels [2]
C[C@@H]1C[C@H]2[C@@H]3CCC4=CC(=O)C=C[C@]4(C)[C@@]3(F)[C@@H](O)C[C@]2(C)[C@@]1(O)C(=O)CO [dexamethasone] | increased mortality | caused an increase in glucose levels | –
CO[C@H]1C[C@@H]2CC[C@@H](C)[C@@](O)(O2)C(=O)C(=O)N2CCCC[C@H]2C(=O)O[C@H]([C@H](C)C[C@@H]2CC[C@@H](O)[C@H](OC)C2)CC(=O)[C@H](C)/C=C(\C)[C@@H](O)[C@@H](OC)C(=O)[C@H](C)C[C@H](C)/C=C/C=C/C=C/1C [rapamycin] | increased mortality | caused an increase in glucose levels | –
CN(C)C(=N)NC(=N)N [Metformin, N,N-Dimethylimidodicarbonimidic diamide] | – | – | reducing circulating glucose levels
